# Values of other authors, collected in patent publication US6555583B2, “Therapies for treating pulmonary diseases” (SmithKline Beecham Corporation, priority 1998, dated 2003).
# Conditions: rolipram developed as an antidepressant
structure (smiles),measurement,value
COc1ccc(C2CNC(=O)C2)cc1OC1CCCC1 (stereo not shown) [rolipram],side effects in clinical studies,psychotropic activity and produces gastrointestinal effects
